Measured values reported in article PMC6950057, “Toxicity, Pharmacokinetics, and Gut Microbiome of Oral Administration of Sesterterpene MHO7 Derived from a Marine Fungus” (Marine Drugs, 2019).

Tested on: gut microbiota
Experiment: Gut (cecal) microbiota analysis by 16S rRNA sequencing
Assay type: in vivo, mice
Conditions: for amount of OTUs vs control: p < 0.001; for gut community richness (Sobs index) vs control: p < 0.01
Description: Fresh cecal samples from 24 (n = 6 per group) mice were collected at 1, 8 and 30 h after oral administration of 500 mg·kg^−1 MHO7 meanwhile control group was collected at 8 h after oral the same volume corn oil, respectively. All of the cecal samples were collected in sterile environments and containers, snap-frozen in liquid nitrogen, and then stored at −80 °C.
Microbial DNA was extracted from 24 cecal samples using the E.Z.N.A.® soil DNA Kit (Omega Bio-tek, Norcross, GA, USA) according to manufacturer’s protocols. The final DNA concentration and purification were determined by NanoDrop 2000 UV-vis spectrophotometer (Thermo Scientific, Wilmington, DE, USA), and DNA quality was checked by 1% agarose gel electrophoresis. The V3-V4 hypervariable regions of the bacteria 16S rRNA gene were amplified with primers 338F (5’- […]-3’) and 806R (5’-[…]-3’) by thermocycler PCR system (GeneAmp 9700, ABI, Foster City, CA, USA). The PCR reactions were conducted using the following program: 3 min of denaturation at 95 °C; 27 cycles of 30 s at 95 °C, 30 s for annealing at 55 °C, and 45 s for elongation at 72 °C; and a final extension at 72 °C for 10 min. PCR reactions were performed in triplicate 20 μL mixture containing 4 μL of 5 × FastPfu Buffer, 2 μL of 2.5 mM·L^−1 dNTPs, 0.8 μL of each primer (5 μM·L^−1), 0.4 μL of FastPfu Polymerase, and 10 ng of template DNA. The resulted PCR products were extracted from a 2% agarose gel and further purified using the AxyPrep DNA Gel Extraction Kit (Axygen Biosciences, Union City, CA, USA) and quantified using QuantiFluor ™ -ST (Promega, Madison, […], USA) according to the manufacturer’s protocol.
Purified amplicons were pooled in equimolar and paired-end sequenced (2 × 300) on an Illumina MiSeq platform (Illumina, San Diego, CA, USA) according to the standard protocols by Majorbio Bio-Pharm Technology Co. Ltd. (Shanghai, China).
Raw fastq files were quality-filtered by Trimmomatic and merged by FLASH according to the following criteria: (i) The reads were truncated at any site receiving an average quality score < 20 over a 50 bp sliding window. (ii) Sequences whose overlap was longer than 10 bp were merged according to their overlap with mismatch no more than 2 bp. (iii) Sequences of each sample were separated according to barcodes (exactly matching) and Primers (allowing 2 nucleotide mismatching), and reads containing ambiguous bases were removed. Operational taxonomic units (OTUs) were clustered using UPARSE (version 7.1, http://drive5.com/uparse/) at a 97% similarity level with a novel “greedy” algorithm that performs chimera filtering and OTU clustering simultaneously. The taxonomy of each 16S rRNA gene sequence was analyzed by RDP Classifier algorithm (http://rdp.cme.msu.edu/) against the Silva (SSU123) 16S rRNA database using confidence threshold of 70%.

[1] = MHO7-1h group, cecal, oral 500 mg·kg^−1
[2] = MHO7-8h group, cecal, oral 500 mg·kg^−1
[3] = MHO7-30h group, cecal, oral 500 mg·kg^−1

Q: What does the source list for `CC(C)=C/C=C/[C@H](C)[C@H]1CC[C@]2(C)C[C@@H]3C(C)=CC(=O)[C@H]3/C(C=O)=C\C[C@@H]12` [MHO7, 6-epi-ophiobolin G]?
A: richness, diversity, OTU number of gut microbiome vs control (MHO7-1 h group): no significant difference; Relative abundance, class Bacilli [1]: 10.08±7.69%; Relative abundance, class Clostridia [1]: 38.58 ± 11.1%; Relative abundance, class Mollicutes [1]: 0.46±0.25%; Relative abundance, class Verrucomicrobiae [1]: 0.0019±0.002%; Relative abundance, family Bacteroidales_S24-7_group [1]: 33.99±6.67%; Relative abundance, family Lachnospiraceae [1]: 27.23±10.42%; Relative abundance, family Lactobacillaceae [1]: 10.05±7.69%; Relative abundance, family Rikenellaceae [1]: 7.09±0.86%; Relative abundance, family Ruminococcaceae [1]: 10.04±1.97%; Relative abundance, family Verrucomicrobiaceae [1]: 0.0019±0.0021%; Relative abundance, genus Anaeroplasma [1]: 0.12±0.11%; Relative abundance, genus Coprococcus_1 [1]: 0.19±0.10%; Relative abundance, genus Family_XIII_AD3011_group [1]: 0.067±0.041%; Relative abundance, genus Lachnoclostridium [1]: 0.51±0.21%; Relative abundance, genus Lactobacillus [1]: 10.05±7.69%; Relative abundance, genus Papillibacter [1]: 0.0062±0.0066%; Relative abundance, genus Peptococcus [1]: 0.010±0.0061%; Relative abundance, genus Prevotellaceae_NK3B31_group [1]: 0.46±0.31%; Relative abundance, genus Prevotellaceae_UCG-001 [1]: 0.78±0.51%; Relative abundance, genus Rikenellaceae_RC9_gut_group [1]: 2.82±0.76%; Relative abundance, genus Ruminiclostridium [1]: 0.78±0.59%; Relative abundance, genus Ruminiclostridium_5 [1]: 0.34±0.14%; Relative abundance, genus Ruminiclostridium_9 [1]: 0.76±0.29%; Relative abundance, genus Ruminococcaceae_NK4A214_group [1]: 0.076±0.024%; Relative abundance, genus Ruminococcaceae_UCG-009 [1]: 0.066±0.050%; Relative abundance, genus Ruminococcaceae_UCG-010 [1]: 0.12±0.046%; Relative abundance, genus Ruminococcaceae_UCG-014 [1]: 2.73±0.93%; Relative abundance, genus Ruminococcus_1 [1]: 1.53±1.04%; Relative abundance, genus Streptococcus [1]: 0.023±0.0050%; Relative abundance, genus [Eubacterium]_coprostanoligenes_group [1]: 0.13±0.12%; Relative abundance, genus [Eubacterium]_ventriosum_group [1]: 0.13±0.089%; Relative abundance, genus g__norank_f__Bacteroidales_S24-7_group [1]: 33.99±6.67%; Relative abundance, genus g__norank_f__Christensenellaceae [1]: 0.034±0.014%; Relative abundance, genus g__norank_f__Lachnospiraceae [1]: 6.456±2.68%; Relative abundance, genus g__norank_f__Ruminococcaceae [1]: 0.31±0.22%; Relative abundance, genus norank_o__Mollicutes_RF9 [1]: 0.34±0.17%; Relative abundance, order Anaeroplasmatales [1]: 0.12±0.11%; Relative abundance, order Bacillales [1]: 0.0000%; Relative abundance, order Clostridiales [1]: 38.54±11.15%; Relative abundance, order Lactobacillales [1]: 10.10±7.65%; Relative abundance, order Mollicutes_RF9 [1]: 0.33±0.16%; Relative abundance, order Verrucomicrobiales [1]: 0.0022±0.0027%; Relative abundance, phylum Deferribacteres [1]: 0.14±0.12%; Relative abundance, phylum Proteobacteria [1]: 0.18±0.045%; Relative abundance, phylum Saccharibacteria [1]: 0.47±0.28%; Relative abundance, phylum Tenericutes [1]: 0.46±0.25%; gut community diversity (Shannon index) vs control (MHO7-8 h group, OTU level, p < 0.05): decreased significantly; amount of OTUs vs control (MHO7-8 h group): remarkable reduction; gut community richness (Sobs index) vs control (MHO7-8 h group): remarkable reduction; Relative abundance, class Bacilli [2]: 11.49±12.09%; Relative abundance, class Clostridia [2]: 28.98 ± 20.11%; Relative abundance, class Mollicutes [2]: 0.0075±0.0048%; Relative abundance, class Verrucomicrobiae [2]: 0.80±1.18%; Relative abundance, family Bacteroidales_S24-7_group [2]: 33.65±5.47%; Relative abundance, family Lachnospiraceae [2]: 21.66±15.88%; Relative abundance, family Lactobacillaceae [2]: 11.34±12.11%; Relative abundance, family Rikenellaceae [2]: 3.66±2.13%; Relative abundance, family Ruminococcaceae [2]: 6.20±4.57%; Relative abundance, family Verrucomicrobiaceae [2]: 0.80±1.18%; Relative abundance, genus Coprococcus_1 [2]: 0.21±0.17%; Relative abundance, genus Family_XIII_AD3011_group [2]: 0.0069±0.0077%; Relative abundance, genus Lachnoclostridium [2]: 0.81±0.61%; Relative abundance, genus Lactobacillus [2]: 11.34±12.11%; Relative abundance, genus Papillibacter [2]: 0.0025±0.0061%; Relative abundance, genus Peptococcus [2]: 0.0050±0.010%; Relative abundance, genus Prevotellaceae_NK3B31_group [2]: 2.54±2.44%; Relative abundance, genus Prevotellaceae_UCG-001 [2]: 4.09±3.41%; Relative abundance, genus Rikenellaceae_RC9_gut_group [2]: 0.088±0.089%; Relative abundance, genus Ruminiclostridium [2]: 0.36±0.31%; Relative abundance, genus Ruminiclostridium_5 [2]: 0.21±0.21%; Relative abundance, genus Ruminiclostridium_9 [2]: 0.60±0.59%; Relative abundance, genus Ruminococcaceae_NK4A214_group [2]: 0.023±0.021%; Relative abundance, genus Ruminococcaceae_UCG-009 [2]: 0.063±0.072%; Relative abundance, genus Ruminococcaceae_UCG-010 [2]: 0.036±0.042%; Relative abundance, genus Ruminococcaceae_UCG-014 [2]: 0.19±0.25%; Relative abundance, genus Ruminococcus_1 [2]: 0.38±0.32%; Relative abundance, genus Staphylococcus [2]: 0.066±0.060%; Relative abundance, genus Streptococcus [2]: 0.029±0.016%; Relative abundance, genus Sutterella [2]: 0.0069±0.010%; Relative abundance, genus [Eubacterium]_coprostanoligenes_group [2]: 0.22±0.23%; Relative abundance, genus [Eubacterium]_ventriosum_group [2]: 0.012±0.020%; Relative abundance, genus g__norank_f__Bacteroidales_S24-7_group [2]: 33.65±5.47%; Relative abundance, genus g__norank_f__Christensenellaceae [2]: 0.011±0.0079%; Relative abundance, genus g__norank_f__Lachnospiraceae [2]: 7.54±4.66%; Relative abundance, genus g__norank_f__Ruminococcaceae [2]: 0.31±0.26%; Relative abundance, genus norank_o__Mollicutes_RF9 [2]: 0.0075±0.0047%; Relative abundance, order Anaeroplasmatales [2]: 0.00028±0.00068%; Relative abundance, order Bacillales [2]: 0.071±0.067%; Relative abundance, order Clostridiales [2]: 28.89±20.03%; Relative abundance, order Lactobacillales [2]: 11.34±12.02%; Relative abundance, order Mollicutes_RF9 [2]: 0.0057±0.0040%; Relative abundance, order Verrucomicrobiales [2]: 0.78±1.15%; Relative abundance, phylum Deferribacteres [2]: 0.0044±0.0050%; Relative abundance, phylum Proteobacteria [2]: 2.05±1.47%; Relative abundance, phylum Saccharibacteria [2]: 0.35±0.61%; Relative abundance, phylum Tenericutes [2]: 0.0075±0.0047%; amount of OTUs vs control (MHO7-30 h group): remarkable reduction; gut community richness (Sobs index) vs control (MHO7-30 h group): remarkable reduction; Relative abundance, class Bacilli [3]: 3.25±3.05%; Relative abundance, class Clostridia [3]: 47.82 ± 20.66%; Relative abundance, class Mollicutes [3]: 0.0012±0.0031%; Relative abundance, class Verrucomicrobiae [3]: 2.51±3.67%; Relative abundance, family Bacteroidales_S24-7_group [3]: 19.34±6.97%; Relative abundance, family Lachnospiraceae [3]: 42.58±19.32%; Relative abundance, family Lactobacillaceae [3]: 3.21±2.99%; Relative abundance, family Rikenellaceae [3]: 3.19±2.16%; Relative abundance, family Ruminococcaceae [3]: 4.13±1.97%; Relative abundance, family Verrucomicrobiaceae [3]: 2.51±3.67%; Relative abundance, genus Coprococcus_1 [3]: 0.11±0.068%; Relative abundance, genus Family_XIII_AD3011_group [3]: 0.021±0.014%; Relative abundance, genus Lachnoclostridium [3]: 2.42±2.02%; Relative abundance, genus Lactobacillus [3]: 3.21±2.99%; Relative abundance, genus Papillibacter [3]: 0.00062±0.0015%; Relative abundance, genus Peptococcus [3]: 0.0050±0.0056%; Relative abundance, genus Prevotellaceae_NK3B31_group [3]: 0.14±0.19%; Relative abundance, genus Prevotellaceae_UCG-001 [3]: 1.07±1.13%; Relative abundance, genus Rikenellaceae_RC9_gut_group [3]: 0.042±0.084%; Relative abundance, genus Ruminiclostridium [3]: 0.079±0.076%; Relative abundance, genus Ruminiclostridium_5 [3]: 0.27±0.23%; Relative abundance, genus Ruminiclostridium_9 [3]: 0.41±0.20%; Relative abundance, genus Ruminococcaceae_NK4A214_group [3]: 0.020±0.023%; Relative abundance, genus Ruminococcaceae_UCG-009 [3]: 0.012±0.015%; Relative abundance, genus Ruminococcaceae_UCG-010 [3]: 0.0062±0.0061%; Relative abundance, genus Ruminococcaceae_UCG-014 [3]: 0.022±0.030%; Relative abundance, genus Ruminococcus_1 [3]: 0.071±0.15%; Relative abundance, genus Streptococcus [3]: 0.0025±0.0031%; Relative abundance, genus Sutterella [3]: 0.090±0.090%; Relative abundance, genus [Eubacterium]_coprostanoligenes_group [3]: 0.28±0.50%; Relative abundance, genus [Eubacterium]_ventriosum_group [3]: 0.022±0.041%; Relative abundance, genus g__norank_f__Bacteroidales_S24-7_group [3]: 19.34±6.97%; Relative abundance, genus g__norank_f__Christensenellaceae [3]: 0.0069±0.0087%; Relative abundance, genus g__norank_f__Lachnospiraceae [3]: 19.81±11.07%; Relative abundance, genus g__norank_f__Ruminococcaceae [3]: 0.16±0.13%; Relative abundance, genus norank_o__Mollicutes_RF9 [3]: 0.0012±0.0031%; Relative abundance, order Anaeroplasmatales [3]: 0.00000%; Relative abundance, order Bacillales [3]: 0.00034±0.00084%; Relative abundance, order Clostridiales [3]: 47.86±20.61%; Relative abundance, order Lactobacillales [3]: 3.26±3.04%; Relative abundance, order Mollicutes_RF9 [3]: 0.0014±0.0025%; Relative abundance, order Verrucomicrobiales [3]: 2.52±3.65%; Relative abundance, phylum Deferribacteres [3]: 0.25±0.23%; Relative abundance, phylum Proteobacteria [3]: 1.34±1.58%; Relative abundance, phylum Saccharibacteria [3]: 0.0069±0.0055%; Relative abundance, phylum Tenericutes [3]: 0.0013±0.0031%; abundance of dominant phyla Firmicutes and Bacteroidetes (at 1, 8 or 30 h after oral administration): no significant differences
